Laboratory results as given in patent publication US20260001886A1, “ENPP1 INHIBITORS I” (RE Ventures I, LLC, priority 2024, published 2026).
Like-named read-outs stand apart in the source and are kept apart here.

Assays:
Human ENPP1 [1] = target: T1, Human ENPP1 (Homo sapiens (Human), UniProt P22413); test: biochemical
Experimental: (§1) ENPP1 catalyses the hydrolysis of ATP into AMP+PPi. AMP production was monitored using Bellbrooks Transcreener AMP/GMP TR-FRET assay kit (Cat No. 3020-10K) according to the manufacturer's instructions. The assay was run with 50 mM Tris pH 7.5, 5 mM MgCl2, 150 mM NaCl, 0.005% Tween20 and distilled H2O. Antibody and tracer were diluted to 2 nM. […] Mouse ENPP1 was run at 15 pM with ATP at 400 nM. AMP produced in the assay by ENPP1 activity competes with a far-red tracer labelled AMP bound to an AMP specific antibody resulting in a decrease in TR-FRET. ENPP1 inhibition reduces AMP production and increases the TR-FRET signal.

human CA-II (CA2) [2] = target: T2, human CA-II (CA2) (Homo sapiens (Human), UniProt P00918); test: biochemical
Experimental: (§2) Cytiva Biacore S200, T200 and 3000 machines were used for all SPR experiments. […] For carbonic anhydrases, data were collected at a constant temperature of 25° C. Human CA-I (CA1) or human CA-II (CA2) was captured via standard EDC/NHS protocol on a Biacore CM5 chip using standard protocols in HBS-N buffer (10 mM HEPES (pH 7.4), 150 mM NaCl) at ˜2000 RU. The experiments were run in PBS buffer containing 0.05% Tween 20 and 3% DMSO. All compounds were initially screened at concentrations ranging from 23 nM to 50 µM or 4.6 nM to 10 µM, injecting from the lowest to highest concentrations and adjusting appropriately for each compound for repeat experiments. Scrubber 2 (Biologic software) was used to process and analyse SPR data. […] Data for the inhibitors were referenced to those for a blank surface and blank injections to normalise for non-specific binding and drift. A DMSO calibration was run to remove excluded volume effect of binding responses between reference and target surface.

human CA-I (CA1) [3] = target: T3, human CA-I (CA1) (Homo sapiens (Human), UniProt P00915); test: biochemical
T3 sequence (P00915 whole entry): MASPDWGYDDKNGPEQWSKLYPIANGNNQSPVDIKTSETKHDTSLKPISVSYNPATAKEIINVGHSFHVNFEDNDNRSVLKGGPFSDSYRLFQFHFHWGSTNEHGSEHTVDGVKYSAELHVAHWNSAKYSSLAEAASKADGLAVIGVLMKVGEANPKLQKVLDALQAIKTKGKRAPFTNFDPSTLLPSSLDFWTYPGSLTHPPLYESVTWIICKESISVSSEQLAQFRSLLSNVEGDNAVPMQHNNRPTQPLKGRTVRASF
Experimental: as §2

[4] = target: ENPP1 expressed by MCF-7 cells (Homo sapiens (Human), UniProt P22413); test: cell-based
ENPP1 expressed by MCF-7 cells, sequence (P22413 whole entry): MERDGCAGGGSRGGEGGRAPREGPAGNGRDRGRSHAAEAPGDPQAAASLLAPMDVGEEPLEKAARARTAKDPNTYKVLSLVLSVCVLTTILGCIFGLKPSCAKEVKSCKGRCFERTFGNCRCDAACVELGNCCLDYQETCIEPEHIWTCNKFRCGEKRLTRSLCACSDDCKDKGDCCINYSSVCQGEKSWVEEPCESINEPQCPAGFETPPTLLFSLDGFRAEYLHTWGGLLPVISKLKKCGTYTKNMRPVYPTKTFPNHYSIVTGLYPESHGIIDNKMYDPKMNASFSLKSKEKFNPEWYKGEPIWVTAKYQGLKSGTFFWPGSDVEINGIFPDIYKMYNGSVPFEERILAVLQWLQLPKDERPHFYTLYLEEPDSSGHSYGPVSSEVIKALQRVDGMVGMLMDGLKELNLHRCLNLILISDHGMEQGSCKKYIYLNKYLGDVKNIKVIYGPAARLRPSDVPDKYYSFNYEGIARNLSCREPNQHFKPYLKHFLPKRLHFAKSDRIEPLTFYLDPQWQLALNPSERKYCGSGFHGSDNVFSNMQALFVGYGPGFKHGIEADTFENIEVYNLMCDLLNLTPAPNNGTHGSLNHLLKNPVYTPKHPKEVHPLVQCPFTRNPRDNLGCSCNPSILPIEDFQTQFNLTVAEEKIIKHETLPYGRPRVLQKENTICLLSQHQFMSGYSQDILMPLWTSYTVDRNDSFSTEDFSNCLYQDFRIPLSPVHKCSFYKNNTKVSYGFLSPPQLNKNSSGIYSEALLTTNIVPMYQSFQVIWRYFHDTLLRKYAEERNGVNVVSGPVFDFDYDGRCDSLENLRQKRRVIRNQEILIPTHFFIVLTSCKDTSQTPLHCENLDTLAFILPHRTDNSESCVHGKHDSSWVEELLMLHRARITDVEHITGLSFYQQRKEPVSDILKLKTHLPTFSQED
Experimental: ENPP1 inhibition was assessed in a human cellular co-culture assay using THP1-Dual interferon reporter cells from InvivoGen (Cat No. thpd-nfis), see Goswami et al., 2022, and MCF-7 cancer cells.
MCF-7 cells were seeded at 10,000 cells/well in a 96 well plate and 24 h later compounds were added in DMEM+GlutaMAX media+2% Hyclone FBS, with a final DMSO of 0.2%. 2′3′-cGAMP was added at a final concentration of 10 μM and incubated for 30 mins at 37° C. 20,000 THP-1 cells were added per well and incubated for 48 h. IFN response was measured by Quanti-Luc Gold according to the manufacturer's instructions using 15 μL Quanti-Luc Gold per well. Luminescence was measured on an EnSight reader (PerkinElmer).

Alpl^Prx1 mouse = test: In vivo Model 1: Alpl^Prx1 mouse model of hypophosphatasia (HPP)
Experimental: Bone tissues were fixed in 4% PFA.
PPi levels were measured using a standard method involving ATPsulfurylase. […] ATP converted from PPi in the samples was mixed with BacTiter-Glo (Promega) and luminescence was quantified in duplicated reactions using a iD3X plate reader (Molecular Device). Values obtained from reactions without ATPsulfurylase were subtracted to eliminate ATP which possibly existed in the plasma samples.
Plasma chemistry was performed using Vetscan VS2 analyzer with Comprehensive Diagnostic Profiles rotor (Abaxis). […] Mouse OPN was measured with Quantikine®-ELISA kit (R&D).
Radiographic images were obtained by using XPERT 80-Kubtec Scientific.
Three stained sections per mouse were analyzed by Keyence microscope to obtain an average value of mineralized area. Five mice per genotype were used (n=5).

Human ENPP1 [5] = target: T1, Human ENPP1
Experimental: as §1

human CA-II (CA2) [6] = target: T2, human CA-II (CA2); test: Surface plasmon resonance, carbonic anhydrase II; details: 25° C., CM5 chip
Experimental: as §2

human CA-I (CA1) [7] = target: T3, human CA-I (CA1); test: Surface plasmon resonance, carbonic anhydrase I; details: 25° C., CM5 chip
Experimental: as §2

[8] = oral in diet, after 100 days of dosing

T1 sequence (P22413 whole entry): as above

Compound	EC50 (Human ENPP1 [1]) [µM]	Kd (human CA-II (CA2) [2]) [µM]	Kd (human CA-I (CA1) [3]) [µM]	EC50 [4] [µM]	also measured
CCS(=N)(=O)c1ccc(Cn2cc(C(C)C)c(=O)n3nc(C4CC4)nc23)cc1 (racemic) [56 Rac]	0.00251	31.6	–	–	–
Cc1cc(Cn2cc(C(C)C)c(=O)n3nc(C4CC4)cc23)ccc1S(C)(=N)=O (racemic) [58 Rac]	0.002	–	> 100000	–	–
CC(C)c1cn(Cc2ccc(S(N)(=O)=O)cc2)c2nc(C3CC3)nn2c1=O [Compound 11, 4-((2-cyclopropyl-6-isopropyl-7-oxo-[1,2,4]triazolo[1,5-a]pyrimidin-4(7H)-yl)methyl)benzenesulfonamide]	–	–	–	–	Bone mineralization of the bone cortex (X-ray, tibia / knee joints) (Alpl^Prx1 mouse; male and female mice, oral in diet, 100 days): increased bone mineralization; Plasma chemistry (significant changes; transaminase, amylase, BUN, Ca) (Alpl^Prx1 mouse; male mice, WT, control and treated): only observed between WT and HPP mice; Mineralization of L3 vertebrate bone (bone morphometry, Von Kossa) (Alpl^Prx1 mouse; oral in diet, 100 days): increased to the levels of wild-type mice; Mineralization of trabecular bones of the distal femur (bone morphometry, Von Kossa) (Alpl^Prx1 mouse; oral in diet, 100 days): slight improvement in mineralization; Plasma AP levels (Alpl^Prx1 mouse; [8]): did not affect; Plasma OPN levels (Alpl^Prx1 mouse; [8]): did not affect; Plasma PPi levels (Alpl^Prx1 mouse; [8]): reduced to the levels of WT mice

More lines, main results first:

EC50 (Human ENPP1 [1]) [µM]	Kd (human CA-II (CA2) [2]) [µM]	Kd (human CA-I (CA1) [3]) [µM]	EC50 [4] [µM]	Compound	also measured
0.00794	> 100000	> 100000	–	CC(C)c1cn(Cc2ccc(S(C)(=N)=O)cc2)c2nc(CC(F)(F)F)nn2c1=O (racemic) [32 Rac]	–
0.00631	> 100000	> 100000	0.0794	CC(C)c1cn(Cc2ccc(S(C)(=N)=O)cc2)c2nc(CC(F)(F)F)nn2c1=O (single isomer, unassigned) [Compound 32A]	–
–	–	–	0.0794	CC(C)c1nc2n(Cc3ccc(S(C)(=N)=O)cc3)cc(C(C)C)c(=O)n2n1 (stereo not shown) [Compound 30, 2,6-diisopropyl-4-(4-(S-methylsulfonimidoyl)benzyl)-[1,2,4]triazolo[1,5-a]pyrimidin-7(4H)-one]	EC50 (Human ENPP1 [5]): 0.00398 µM; CA2 human SPR pKD (human CA-II (CA2) [6]): <1; CA1 human SPR pKD (human CA-I (CA1) [7]): <1
